Source: ChEMBL document CHEMBL1201862, “PubChem BioAssay data set” (2004)
Active and inactive are the calls of the source.

Key:
[1] = biological target: T1, Caspase-3 (Homo sapiens, UniProt P42574); assay type: functional;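 further: Dose-response selectivity test against caspase-3 for candidate inhibitors of sentrin-specific proteases (SENPs)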
T1 sequence (P42574 whole entry): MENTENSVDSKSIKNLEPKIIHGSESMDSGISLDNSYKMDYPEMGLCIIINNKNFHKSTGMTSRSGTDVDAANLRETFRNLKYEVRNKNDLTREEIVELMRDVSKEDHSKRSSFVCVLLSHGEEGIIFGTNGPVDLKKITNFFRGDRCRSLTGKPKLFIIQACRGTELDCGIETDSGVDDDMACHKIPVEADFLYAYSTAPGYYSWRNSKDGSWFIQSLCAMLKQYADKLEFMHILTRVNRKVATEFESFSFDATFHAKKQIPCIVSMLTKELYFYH

[2] = biological target: T2, Sentrin-specific protease 7 (Homo sapiens, UniProt Q9BQF6); assay type: functional;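 further: Luminescence-based dose-response confirmation of ultra-high-throughput screening hits, measuring inhibition of SENP7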
T2 sequence (Q9BQF6 whole entry): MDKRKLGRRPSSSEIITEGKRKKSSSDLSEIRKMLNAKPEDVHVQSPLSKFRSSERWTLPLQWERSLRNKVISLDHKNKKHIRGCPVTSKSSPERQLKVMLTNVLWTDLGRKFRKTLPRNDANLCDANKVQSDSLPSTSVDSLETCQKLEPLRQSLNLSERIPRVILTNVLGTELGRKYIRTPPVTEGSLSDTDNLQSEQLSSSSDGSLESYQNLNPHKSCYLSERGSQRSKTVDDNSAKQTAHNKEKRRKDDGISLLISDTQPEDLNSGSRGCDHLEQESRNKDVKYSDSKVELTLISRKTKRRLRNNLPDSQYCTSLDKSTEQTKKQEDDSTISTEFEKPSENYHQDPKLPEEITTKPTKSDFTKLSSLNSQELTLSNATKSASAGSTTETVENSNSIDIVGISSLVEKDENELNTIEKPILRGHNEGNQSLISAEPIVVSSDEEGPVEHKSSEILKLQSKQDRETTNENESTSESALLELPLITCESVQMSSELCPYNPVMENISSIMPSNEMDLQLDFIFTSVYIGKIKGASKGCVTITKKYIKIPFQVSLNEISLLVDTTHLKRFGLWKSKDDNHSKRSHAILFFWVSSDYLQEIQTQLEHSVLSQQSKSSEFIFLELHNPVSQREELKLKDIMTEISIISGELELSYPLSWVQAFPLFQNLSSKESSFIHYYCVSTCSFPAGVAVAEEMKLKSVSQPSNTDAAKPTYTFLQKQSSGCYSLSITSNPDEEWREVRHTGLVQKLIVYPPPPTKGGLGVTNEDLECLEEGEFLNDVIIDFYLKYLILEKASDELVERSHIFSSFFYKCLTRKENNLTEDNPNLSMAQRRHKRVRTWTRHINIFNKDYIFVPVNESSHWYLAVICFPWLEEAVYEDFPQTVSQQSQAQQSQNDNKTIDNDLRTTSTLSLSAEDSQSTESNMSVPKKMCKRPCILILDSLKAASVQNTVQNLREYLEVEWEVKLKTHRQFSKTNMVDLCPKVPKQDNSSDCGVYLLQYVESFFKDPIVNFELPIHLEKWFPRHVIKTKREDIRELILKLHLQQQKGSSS

[3] = biological target: T3, Sentrin-specific protease 6 (Homo sapiens, UniProt Q9GZR1); assay type: functional;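 further: Luminescence-based dose-response confirmatory assay of SENP6 inhibition, following up an ultra-high-throughput screen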
T3 sequence (Q9GZR1 whole entry): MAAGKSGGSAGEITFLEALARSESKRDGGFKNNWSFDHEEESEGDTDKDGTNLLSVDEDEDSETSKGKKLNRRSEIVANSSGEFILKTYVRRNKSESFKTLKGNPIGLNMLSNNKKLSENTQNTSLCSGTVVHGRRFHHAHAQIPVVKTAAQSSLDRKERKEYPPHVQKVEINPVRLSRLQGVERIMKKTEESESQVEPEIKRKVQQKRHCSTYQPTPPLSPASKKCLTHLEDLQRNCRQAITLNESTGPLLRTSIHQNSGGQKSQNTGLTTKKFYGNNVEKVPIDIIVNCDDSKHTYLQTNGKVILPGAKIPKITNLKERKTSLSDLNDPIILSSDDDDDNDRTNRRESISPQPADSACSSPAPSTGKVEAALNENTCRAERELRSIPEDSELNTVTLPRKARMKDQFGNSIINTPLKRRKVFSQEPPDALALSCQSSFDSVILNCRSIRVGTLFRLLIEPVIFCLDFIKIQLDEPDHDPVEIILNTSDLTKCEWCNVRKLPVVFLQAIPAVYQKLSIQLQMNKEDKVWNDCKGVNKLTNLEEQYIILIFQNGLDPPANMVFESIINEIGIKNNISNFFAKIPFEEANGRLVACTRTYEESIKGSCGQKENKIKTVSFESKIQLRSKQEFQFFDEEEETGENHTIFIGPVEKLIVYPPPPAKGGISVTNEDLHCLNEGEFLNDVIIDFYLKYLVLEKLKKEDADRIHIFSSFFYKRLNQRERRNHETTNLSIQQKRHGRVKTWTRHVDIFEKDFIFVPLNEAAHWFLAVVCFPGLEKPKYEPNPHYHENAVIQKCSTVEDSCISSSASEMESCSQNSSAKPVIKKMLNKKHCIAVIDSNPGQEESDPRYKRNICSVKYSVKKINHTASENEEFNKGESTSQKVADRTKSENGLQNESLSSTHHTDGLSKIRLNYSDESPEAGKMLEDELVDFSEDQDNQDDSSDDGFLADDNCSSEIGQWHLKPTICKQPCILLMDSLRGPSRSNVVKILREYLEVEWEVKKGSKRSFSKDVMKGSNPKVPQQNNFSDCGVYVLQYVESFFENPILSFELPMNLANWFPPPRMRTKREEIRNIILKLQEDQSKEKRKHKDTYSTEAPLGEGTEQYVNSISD

[4] = biological target: T4, Sentrin-specific protease 8 (Homo sapiens, UniProt Q96LD8); assay type: functional;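 further: luminescence read-out of SENP8 inhibition, dose-response confirmation following an ultra-high-throughput screen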
T4 sequence (Q96LD8 whole entry): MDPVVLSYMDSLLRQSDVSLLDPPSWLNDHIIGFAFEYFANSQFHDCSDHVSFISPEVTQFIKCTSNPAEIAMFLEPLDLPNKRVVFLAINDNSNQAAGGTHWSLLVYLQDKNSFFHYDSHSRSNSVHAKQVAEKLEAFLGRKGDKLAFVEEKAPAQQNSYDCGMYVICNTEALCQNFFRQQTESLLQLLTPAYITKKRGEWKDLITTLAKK

[5] = biological target: T5, Oxysterols receptor LXR-beta (Homo sapiens, UniProt P55055); assay type: functional, cell-based;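 further: agonist activity at LXR measured by a cell-based luminescence readout across a dose range, run as a counterscreen for daf-12 agonists; HEK293 cells with Gal4-LXR fusion and GAL4-driven luciferase reporter; potency for activation of Gal4-LXR reporter so compounds are agonists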
T5 sequence (P55055 whole entry): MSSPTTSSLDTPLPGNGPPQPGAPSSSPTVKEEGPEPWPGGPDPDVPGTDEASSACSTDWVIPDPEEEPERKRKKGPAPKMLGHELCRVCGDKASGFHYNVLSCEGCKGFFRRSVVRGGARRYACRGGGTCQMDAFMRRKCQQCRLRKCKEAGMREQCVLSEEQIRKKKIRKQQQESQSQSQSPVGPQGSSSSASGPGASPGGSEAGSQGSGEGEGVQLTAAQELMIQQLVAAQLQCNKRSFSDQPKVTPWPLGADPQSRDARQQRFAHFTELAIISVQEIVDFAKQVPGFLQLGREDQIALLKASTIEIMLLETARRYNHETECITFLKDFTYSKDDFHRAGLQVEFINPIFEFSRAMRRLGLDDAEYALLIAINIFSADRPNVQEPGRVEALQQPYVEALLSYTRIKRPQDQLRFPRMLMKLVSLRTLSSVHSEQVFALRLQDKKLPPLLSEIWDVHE

[6] = inhibitors of HIV Env-driven cell fusion, dose response, cherry-pick (AID 652057); assay type: functional, cell-based
[7] = ZM109 Env clade C HIV-1 fusion inhibitors, dose response, HeLa effector, CEM target cells, luciferase, cherry-pick (AID 652058); assay type: functional, cell-based
[8] = off-target signal loss in HeLa-CEM21 co-culture – HeLa F-luc CTL cells, cherry-picked, counter-screen for HIV-1 Env fusion inhibitor project, dose response (AID 652040); assay type: functional, cell-based;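 further: potency for signal decrease marking cytotoxic or nonspecific inhibition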
[9] = inhibitors of clade B AD8 Env fusion, dose response, cell-based, cherry-pick (AID 652062); assay type: functional;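 further: luciferase signal from cell-cell fusion driven by HIV-1 clade B AD8 Env; potency is for inhibitors of fusion seen as a drop in luminescence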
[10] = P. falciparum 3D7-ScDHODH growth inhibitors, dose response, SYBR Green, dry powder samples (AID 1159570); assay type: functional, cell-based;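 further: parasite growth measured after 72 hours of compound exposure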
[11] = HepG2 cell cytotoxicity, dose response, cytotoxicity control, plate reader, dry powder samples (AID 1159569); assay type: functional, cell-based;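 further: inhibitor potency with signal falling toward the positive control level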
[12] = P. falciparum Dd2 growth inhibitors, dose response, SYBR Green, dry powder samples (AID 1159566); assay type: functional, cell-based;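 further: potency for growth inhibition with lower SYBR green DNA signal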
[13] = P. falciparum ATP4 D1247Y mutant growth inhibitors, dose response, NITD609-resistant line, SYBR Green, dry powder (AID 1159571); assay type: functional, cell-based;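 further: parasites synchronized at ring stage by sorbitol before testing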
[14] = P. falciparum Dd2 growth inhibitors, dose response, SYBR Green, cherry-picked samples (AID 1159567); assay type: functional, cell-based
[15] = biological target: Heat shock protein HSP 90-alpha (Homo sapiens, UniProt P07900); assay type: functional, organism-based

Structure (SMILES) | EC50 [5] | AC50 [10] | AC50 [11] | AC50 [12] | AC50 [13] | other results
COc1ccc(/C=C2/CCc3ccccc3C2=O)cc1OC |  |  |  |  |  | IC50 [1]: 32.2 µM (active); IC50 [2]: 8.88 µM (active); IC50 [3]: 18 µM (active); IC50 [4]: 17 µM (active)
C[C@H]1CNC(=O)c2c(C(=O)N3CCN(c4ccccc4)CC3)ncn21 |  |  |  |  |  | AC50 [6]: 4.6 µM (active); AC50 [7]: 3.25 µM (active); AC50 [8]: 9.62 µM (active); AC50 [9]: 7.04 µM (active)
CCCC#Cc1ccc2c(c1)O[C@@H](CN(C)C(=O)C1CCCCC1)[C@H](C)CN([C@H](C)CO)S2(=O)=O |  |  |  |  |  | AC50 [6]: 21.7 µM (active); AC50 [7]: 13.3 µM (active)
COc1cccc(NC(=O)N(C)C[C@@H]2Oc3cc(C#Cc4ccccc4)ccc3S(=O)(=O)N([C@@H](C)CO)C[C@@H]2C)c1 |  | 1.14 µM (active) | > 100 µM (inactive) | 1.33 µM (active) | 1.35 µM (active) | 
COc1ccccc1CN1C[C@@H]2N[C@H](C1)[C@@H]2c1ccc(-c2ccncc2)cc1 |  | 3.59 µM (active) | 24.6 µM (active) | 2.02 µM (active) | 3.07 µM (active) | AC50 [14]: 2.48 µM (active)
C[C@H]1CN([C@@H](C)CO)C(=O)c2c(c3ccccc3n2C)-c2ccccc2CO[C@H]1CN(C)C(=O)Nc1ccc(-c2ccccc2)cc1 |  | 2.71 µM (active) | > 100 µM (inactive) | 0.656 µM (active) | 0.634 µM (active) | AC50 [14]: 2.08 µM (active)
Cc1cc(C)c(S(=O)(=O)N2CCC(C(=O)NCc3ccc(Cl)cc3Cl)CC2)c(C)c1 |  |  |  |  |  | AC50 [15]: < 0.195 µM (active)

The next lines start with results.

EC50 [5] | Structure (SMILES) | AC50 [10] | AC50 [11] | AC50 [12] | AC50 [13] | other results
> 67.4 µM (inactive) | CCCCSc1ncnc2c1ncn2C1CCCCO1 (stereo not drawn) |  |  |  |  | 
> 67.6 µM (inactive) | O=C(NNCc1ccccc1)c1ccccn1 |  |  |  |  | 
> 67.5 µM (inactive) | C#CCNC(=O)C[C@H]1C[C@@]2(C(=O)OC)C(=C[C@H](C(C)C)O[C@@H]2C2CC2)N(CCCCCCCC)C1=O |  |  |  |  | 
